Measured values from US20210045385A1, “PYRIDAZINONE-SUBSTITUTED KETOXIMES AS HERBICIDES” (FMC Corporation, priority 2018, published 2021).

Key:
Assay type in all cases: in vivo
[1] = test system: ragweed (common ragweed, Ambrosia elatior); experiment: Test A postemergence, visual plant response rating; details: for Ragweed plant response rating (0 to 100 scale): 500 g ai/ha, postemergence, 0 is no effect, 100 is complete control; for Ragweed plant response rating: Postemergence, 125 g ai/ha, 0 to 100 scale (0 no effect, 100 complete control)
Procedure, shortened: (§1)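 Formulated in a non-phytotoxic solvent mixture including surfactant, each test chemical was sprayed onto the soil surface after sowing, or onto seedlings 2 to 10 cm high. Roughly 10 days later, plants were compared with untreated controls and rated for injury from 0 (no effect) to 100 (complete control).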

corn (Zea mays) = experiment: Test A postemergence, visual plant response rating; details: for Corn plant response rating (0 to 100 scale): 500 g ai/ha, postemergence, 0 is no effect, 100 is complete control; for Corn plant response rating: Postemergence, 125 g ai/ha, 0 to 100 scale (0 no effect, 100 complete control)
Procedure, shortened: as §1

kochia (Kochia scoparia) [2] = experiment: Test A postemergence, visual plant response rating; details: for Kochia plant response rating (0 to 100 scale): 500 g ai/ha, postemergence, 0 is no effect, 100 is complete control; for Kochia plant response rating: Postemergence, 125 g ai/ha, 0 to 100 scale (0 no effect, 100 complete control)
Procedure, shortened: as §1

[3] = test system: foxtail, giant (giant foxtail, Setaria faberii); experiment: Test A postemergence, visual plant response rating; details: for Foxtail, Giant plant response rating (0 to 100 scale): 500 g ai/ha, postemergence, 0 is no effect, 100 is complete control; for Foxtail, Giant plant response rating: Postemergence, 125 g ai/ha, 0 to 100 scale (0 no effect, 100 complete control)
Procedure, shortened: as §1

[4] = test system: wheat (Triticum aestivum); experiment: Test A postemergence, visual plant response rating; details: for Wheat plant response rating (0 to 100 scale): 500 g ai/ha, postemergence, 0 is no effect, 100 is complete control; for Wheat plant response rating: Postemergence, 125 g ai/ha, 0 to 100 scale (0 no effect, 100 complete control)
Procedure, shortened: as §1

[5] = test system: blackgrass (Alopecurus myosuroides); experiment: Test A postemergence, visual plant response rating; details: for Blackgrass plant response rating (0 to 100 scale): 500 g ai/ha, postemergence, 0 is no effect, 100 is complete control; for Blackgrass plant response rating: Postemergence, 125 g ai/ha, 0 to 100 scale (0 no effect, 100 complete control)
Procedure, shortened: as §1

[6] = test system: pigweed (Amaranthus retroflexus); experiment: Test A postemergence, visual plant response rating; details: for Pigweed plant response rating (0 to 100 scale): 500 g ai/ha, postemergence, 0 is no effect, 100 is complete control; for Pigweed plant response rating: Postemergence, 125 g ai/ha, 0 to 100 scale (0 no effect, 100 complete control)
Procedure, shortened: as §1

[7] = test system: galium (catchweed bedstraw, Galium aparine); experiment: Test A postemergence, visual plant response rating; details: for Galium plant response rating (0 to 100 scale): 500 g ai/ha, postemergence, 0 is no effect, 100 is complete control; for Galium plant response rating: Postemergence, 125 g ai/ha, 0 to 100 scale (0 no effect, 100 complete control)
Procedure, shortened: as §1

[8] = test system: Italian ryegrass (Lolium multiflorum); experiment: Test A postemergence, visual plant response rating; details: for Ryegrass, Italian plant response rating (0 to 100 scale): 500 g ai/ha, postemergence, 0 is no effect, 100 is complete control; for Ryegrass, Italian plant response rating: Postemergence, 125 g ai/ha, 0 to 100 scale (0 no effect, 100 complete control)
Procedure, shortened: as §1

[9] = test system: barnyardgrass (Echinochloa crus-galli); experiment: Test A postemergence, visual plant response rating; details: for Barnyardgrass plant response rating (0 to 100 scale): 500 g ai/ha, postemergence, 0 is no effect, 100 is complete control; for Barnyardgrass plant response rating: Postemergence, 125 g ai/ha, 0 to 100 scale (0 no effect, 100 complete control)
Procedure, shortened: as §1

[10] = test system: ragweed (common ragweed, Ambrosia elatior); experiment: Test A preemergence, visual plant response rating; details: for Ragweed plant response rating: 125 g ai/ha, preemergence, 0 to 100 scale, 0 no effect, 100 complete control; for Ragweed plant response rating (0 to 100 scale): 500 g ai/ha Preemergence, approx. 10 days
Procedure, shortened: as §1

kochia (Kochia scoparia) [11] = experiment: Test A preemergence, visual plant response rating; details: for Kochia plant response rating: 125 g ai/ha, preemergence, 0 to 100 scale, 0 no effect, 100 complete control; for Kochia plant response rating (0 to 100 scale): 500 g ai/ha Preemergence, approx. 10 days
Procedure, shortened: as §1

[12] = test system: foxtail, giant (giant foxtail, Setaria faberii); experiment: Test A preemergence, visual plant response rating; details: for Foxtail, Giant plant response rating: 125 g ai/ha, preemergence, 0 to 100 scale, 0 no effect, 100 complete control; for Foxtail, Giant plant response rating (0 to 100 scale): 500 g ai/ha Preemergence, approx. 10 days
Procedure, shortened: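 Preemergence: seeds in loam/sand blend given directed soil spray of compound in non-phytotoxic solvent with surfactant. Postemergence: plants 2–10 cm, one- to two-leaf stage, sprayed with same formulation. Visual injury rated vs untreated controls after ~10 days in greenhouse, 0 (no effect) to 100 (complete control).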

[13] = test system: pigweed (Amaranthus retroflexus); experiment: Test A preemergence, visual plant response rating; details: for Pigweed plant response rating: 125 g ai/ha, preemergence, 0 to 100 scale, 0 no effect, 100 complete control; for Pigweed plant response rating (0 to 100 scale): 500 g ai/ha Preemergence, approx. 10 days
Procedure, shortened: as §1

[14] = test system: Italian ryegrass (Lolium multiflorum); experiment: Test A preemergence, visual plant response rating; details: for Ryegrass, Italian plant response rating: 125 g ai/ha, preemergence, 0 to 100 scale, 0 no effect, 100 complete control; for Ryegrass, Italian plant response rating (0 to 100 scale): 500 g ai/ha Preemergence, approx. 10 days
Procedure, shortened: as §1

[15] = test system: barnyardgrass (Echinochloa crus-galli); experiment: Test A preemergence, visual plant response rating; details: for Barnyardgrass plant response rating: 125 g ai/ha, preemergence, 0 to 100 scale, 0 no effect, 100 complete control; for Barnyardgrass plant response rating (0 to 100 scale): 500 g ai/ha Preemergence, approx. 10 days
Procedure, shortened: as §1

[16] = test system: ducksalad (Heteranhera limosa); experiment: Test B flooded paddy test, visual plant response rating; details: 250 g ai/ha, Flood, applied to paddy water, 2-leaf stage, evaluated after 13 to 15 days
Procedure, shortened: (§2)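 Rice, umbrella sedge, ducksalad and barnyardgrass grown to 2-leaf stage; pots flooded 3 cm above soil and compound applied directly to paddy water, depth maintained.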

[17] = test system: sedge, umbrella (small-flower umbrella sedge, Cyperus difformis); experiment: as above; details: 250 g ai/ha, Flood, applied to paddy water, 2-leaf stage, evaluated after 13 to 15 days
Procedure, shortened: as §2

rice (Oryza sativa) = experiment: as above; details: 250 g ai/ha, Flood, applied to paddy water, 2-leaf stage, evaluated after 13 to 15 days
Procedure, shortened: as §2

[18] = test system: barnyardgrass (Echinochloa crus-galli); experiment: as above; details: 250 g ai/ha, Flood, applied to paddy water, 2-leaf stage, evaluated after 13 to 15 days
Procedure, shortened: as §2

Row | Compound | Ragweed plant response rating (0 to 100 scale) [1] | Ragweed plant response rating [1] | Corn plant response rating (0 to 100 scale) (corn (Zea mays)) | Corn plant response rating (corn (Zea mays)) | Kochia plant response rating (0 to 100 scale) (kochia (Kochia scoparia) [2]) | Kochia plant response rating (kochia (Kochia scoparia) [2]) | Foxtail, Giant plant response rating (0 to 100 scale) [3] | Foxtail, Giant plant response rating [3] | Wheat plant response rating (0 to 100 scale) [4] | Wheat plant response rating [4] | Blackgrass plant response rating (0 to 100 scale) [5] | Blackgrass plant response rating [5] | Pigweed plant response rating (0 to 100 scale) [6] | Pigweed plant response rating [6] | Galium plant response rating (0 to 100 scale) [7] | Galium plant response rating [7] | Ryegrass, Italian plant response rating (0 to 100 scale) [8] | Ryegrass, Italian plant response rating [8] | Barnyardgrass plant response rating (0 to 100 scale) [9] | Barnyardgrass plant response rating [9] | also measured
1 | CON=C(c1c(OC(C)=O)c(C)nn(C)c1=O)c1cccc2ccccc12 [Compound 48] | 90 | 80 | 80 | 10 | 80 | 70 | 80 | 30 | 10 | 0 | 90 | 70 | 90 | 80 | 90 | 80 | 80 | 70 | 30 | 20 | Ragweed plant response rating [10]: 100; Ragweed plant response rating (0 to 100 scale) [10]: 100; Kochia plant response rating (kochia (Kochia scoparia) [11]): 40; Kochia plant response rating (0 to 100 scale) (kochia (Kochia scoparia) [11]): 100; Foxtail, Giant plant response rating [12]: 90; Foxtail, Giant plant response rating (0 to 100 scale) [12]: 90; Pigweed plant response rating [13]: 30; Pigweed plant response rating (0 to 100 scale) [13]: 100; Ryegrass, Italian plant response rating [14]: 40; Ryegrass, Italian plant response rating (0 to 100 scale) [14]: 70; Barnyardgrass plant response rating [15]: 20; Barnyardgrass plant response rating (0 to 100 scale) [15]: 70; Plant response rating, Ducksalad (0 to 100 scale, 0 is no effect, 100 is complete control) [16]: 0; Plant response rating, Sedge, Umbrella (0 to 100 scale, 0 is no effect, 100 is complete control) [17]: 0; Plant response rating, Rice (0 to 100 scale, 0 is no effect, 100 is complete control) (rice (Oryza sativa)): 0; Plant response rating, Barnyardgrass (0 to 100 scale, 0 is no effect, 100 is complete control) [18]: 0
2 | CON=C(c1c(Cl)ccc(C)c1F)c1c(O)c(C)nn(C)c1=O [Compound 101] | 60 | 40 | 0 | 0 | 30 | 0 | 20 | 0 | 0 | 0 | 30 | 0 | 40 | 10 | 80 | 80 | 10 | 0 | 30 | 30 | Ragweed plant response rating [10]: 20; Ragweed plant response rating (0 to 100 scale) [10]: 70; Kochia plant response rating (kochia (Kochia scoparia) [11]): 0; Kochia plant response rating (0 to 100 scale) (kochia (Kochia scoparia) [11]): 10; Foxtail, Giant plant response rating [12]: 0; Foxtail, Giant plant response rating (0 to 100 scale) [12]: 10; Pigweed plant response rating [13]: 0; Pigweed plant response rating (0 to 100 scale) [13]: 10; Ryegrass, Italian plant response rating [14]: 0; Ryegrass, Italian plant response rating (0 to 100 scale) [14]: 40; Barnyardgrass plant response rating [15]: 0; Barnyardgrass plant response rating (0 to 100 scale) [15]: 10; Plant response rating, Ducksalad (0 to 100 scale, 0 is no effect, 100 is complete control) [16]: 0; Plant response rating, Sedge, Umbrella (0 to 100 scale, 0 is no effect, 100 is complete control) [17]: 0; Plant response rating, Rice (0 to 100 scale, 0 is no effect, 100 is complete control) (rice (Oryza sativa)): 0; Plant response rating, Barnyardgrass (0 to 100 scale, 0 is no effect, 100 is complete control) [18]: 0
3 | CO/N=C(/c1ccccc1C(C)C)c1c(O)c(C)nn(C)c1=O [Compound 93] | 50 | 10 | 10 | 10 | 30 | 0 | 40 | 30 | 10 | 0 | 70 | 0 | 80 | 50 | 70 | 60 | 80 | 40 | 20 | 10 | Ragweed plant response rating [10]: 0; Ragweed plant response rating (0 to 100 scale) [10]: 0; Kochia plant response rating (kochia (Kochia scoparia) [11]): 0; Kochia plant response rating (0 to 100 scale) (kochia (Kochia scoparia) [11]): 0; Foxtail, Giant plant response rating [12]: 10; Foxtail, Giant plant response rating (0 to 100 scale) [12]: 30; Pigweed plant response rating [13]: 0; Pigweed plant response rating (0 to 100 scale) [13]: 20; Ryegrass, Italian plant response rating [14]: 20; Ryegrass, Italian plant response rating (0 to 100 scale) [14]: 70; Barnyardgrass plant response rating [15]: 0; Barnyardgrass plant response rating (0 to 100 scale) [15]: 50; Plant response rating, Ducksalad (0 to 100 scale, 0 is no effect, 100 is complete control) [16]: 65; Plant response rating, Sedge, Umbrella (0 to 100 scale, 0 is no effect, 100 is complete control) [17]: 0; Plant response rating, Rice (0 to 100 scale, 0 is no effect, 100 is complete control) (rice (Oryza sativa)): 0; Plant response rating, Barnyardgrass (0 to 100 scale, 0 is no effect, 100 is complete control) [18]: 0
